Test results: paper PMC4438431 (2015)

Legend:
Assay in all cases: CD titration, Hyperquad 2003 fit
[1] = tested on: c-mycTGA-de (DNA, G4) GGGTGGGGAGGGTGGGGAA; conditions: K+ (17 mM K2HPO4/KH2PO4); pH 7.40, 5% DMSO, 20 °C; site 1 of 2, stepwise 1:1; second G4 2.8 × 10^2 M^-1
[2] = tested on: c-myc1245 (DNA, G4) TGAGGGTGGGTTTTTAGGGTGGGGAA; conditions: K+ (17 mM K2HPO4/KH2PO4); pH 7.40, 5% DMSO, 20 °C; conflict: Figure S38 legend prints (5.1 ± 0.2) × 10^4
[3] = tested on: c-kitG20T (DNA, G4) AGGGAGGGCGCTGGGAGGATGG; conditions: K+ (17 mM K2HPO4/KH2PO4); pH 7.40, 5% DMSO, 20 °C; site 1 of 2, stepwise 1:1; second G4 1.1 × 10^5 M^-1

Ka [1]: (5.1 ± 0.2) × 10^4 M^-1 | Ka [2]: (1.3 ± 0.05) × 10^6 M^-1 | Ka1 [3]: (9.4 ± 0.4) × 10^4 M^-1
Compound: Cn1c2cccc(n2)n(C)c2cccc(n2)n(C)c2cccc(n2)n(C)c2cccc(n2)n(C)c2cccc(n2)n(C)c2cccc1n2
